Structures are written as SMILES. Entries after “also recorded” stand apart in the source; their conditions may differ.

For data set [1] the following is noted: French Pat. No. 1,566,045; cited from earlier work.
Data set [2] in a line: Comparative tests of antiarrhythmic action, neurotoxicity and side effects (general statements). To be noted: general statement.
The conditions of data set [3]: Dahlbom and Dolby, Acta Pharm. Suecica (1969); cited from earlier work.

Take `Cc1cccc(C)c1NC(=O)C1CC2CCN1CC2` (stereo not drawn) [2,6-xylidide of quinuclidine-2-carboxylic acid]: the action indicated result in data set [1] was “antiarrhythmic and local anaesthetic action”. In data set [2], the cardiac antiarrhythmic action result was “devoid of useful cardiac antiarrhythmic action; also recorded: devoid of useful antiarrhythmic properties; also recorded: devoid of any useful cardiac antiarrhythmic effect” and the neurotoxicity entry is recorded as “neurotoxic”. The cardiac antiarrhythmic action entry in data set [2] (listed as 2,6,-xylidide of quinuclidine-2-carboxylic acid) was “completely devoid of any useful antiarrhythmic action”.
Regarding `Cc1cccc(C)c1NC(=O)C1CN2CCC1CC2` (stereo not drawn) [2,6-xylidide of quinuclidine-3-carboxylic acid], the cardiac antiarrhythmic action entry in data set [2] is “pronounced cardiac antiarrhythmic activity; also recorded: highly pronounced cardiac antiarrhythmic action”. In data set [3], the pharmacological effect entry is on record as “no pharmacological effect except for a weak local anaesthetic action”.

Source of the values: US4146628A, “Antiarrhythmic quinuclidine carboxylic acid xylidide and method of producing the same and similar compounds” (priority 1977, dated 1979).
